Results reported in patent US20120121591A1 (priority 2009, published 2012).
Like-named read-outs stand apart in the source and are kept apart here.

Assays:
Type in all cases: cell-based
[1] = target: hKv1.3 (Homo sapiens, UniProt P22001); assay: cell-based; settings: Kv1.3 (IWQ) IC50 (nM, Avg)
[2] = tested on: IL-2 secretion from T cells in human whole blood; settings: read-out: WB (IL-2) IC50 (nM, Avg)
[3] = tested on: IFN-g secretion from T cells in human whole blood
[4] = read-out: WB (IFNg) IC50 (nM, Avg)

Sequence of hKv1.3 (P22001 whole entry): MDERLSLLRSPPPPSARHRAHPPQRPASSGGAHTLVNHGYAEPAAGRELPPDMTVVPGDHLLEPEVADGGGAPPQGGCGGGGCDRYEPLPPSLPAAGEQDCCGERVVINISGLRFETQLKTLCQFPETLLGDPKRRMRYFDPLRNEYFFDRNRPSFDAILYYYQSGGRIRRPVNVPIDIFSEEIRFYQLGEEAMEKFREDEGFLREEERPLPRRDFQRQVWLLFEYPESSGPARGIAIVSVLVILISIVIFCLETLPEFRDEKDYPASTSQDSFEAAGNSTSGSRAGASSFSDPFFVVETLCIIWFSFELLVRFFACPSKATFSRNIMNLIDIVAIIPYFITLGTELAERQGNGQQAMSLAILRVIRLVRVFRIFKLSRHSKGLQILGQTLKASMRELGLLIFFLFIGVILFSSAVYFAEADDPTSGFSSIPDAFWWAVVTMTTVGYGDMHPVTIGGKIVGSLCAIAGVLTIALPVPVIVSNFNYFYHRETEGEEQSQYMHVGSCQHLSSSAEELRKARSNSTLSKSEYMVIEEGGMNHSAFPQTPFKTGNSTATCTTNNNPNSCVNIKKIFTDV

Compound	IC50 [1] [nM]	IC50 [2] [nM]	IC50 ([3]; read-out: WB (IFNg) IC5- (nM, Avg)) [nM]	IC50 [3, 4] [nM]
CC[C@H](C)[C@@H]1NC(=O)[C@@H](NC(=O)[C@H](CO)NC(=O)[C@@H](N)CCCNC(=N)N)CSSC[C@@H](C(=O)O)NC(=O)[C@H]([C@@H](C)O)NC(=O)CNC(=O)[C@@H]2CSSC[C@@H]3NC(=O)[C@H](CCC(N)=O)NC(=O)[C@H](Cc4ccccc4)NC(=O)[C@H](C)NC(=O)[C@H](CCC(=O)O)NC(=O)[C@H](CSSC[C@H](NC(=O)[C@H](Cc4ccccc4)NC(=O)[C@H](CO)NC(=O)[C@H](CC(C)C)NC(=O)[C@H](CCCNC(=N)N)NC(=O)[C@H](Cc4ccc(O)cc4)NC(=O)[C@H](CCCCN)NC(=O)[C@H](CCSC)NC(=O)[C@H](CO)NC(=O)[C@H](Cc4c[nH]cn4)NC(=O)[C@H](CCCCN)NC3=O)C(=O)N[C@@H](CCCNC(=N)N)C(=O)N[C@@H](CCCCN)C(=O)N[C@@H]([C@@H](C)O)C(=O)N2)NC(=O)[C@H](CCCNC(=N)N)NC(=O)[C@H](CO)NC(=O)[C@H](CCCCN)NC(=O)[C@@H]2CCCN2C(=O)[C@H]([C@@H](C)CC)NC(=O)[C@H]([C@@H](C)O)NC(=O)[C@H](CC(=O)O)NC1=O [[Glu13]ShK]	0.157	0.785	1.1	
CC[C@H](C)[C@@H]1NC(=O)[C@@H](NC(=O)[C@H](CO)NC(=O)[C@@H](N)CCCNC(=N)N)CSSC[C@@H](C(=O)O)NC(=O)[C@H]([C@@H](C)O)NC(=O)CNC(=O)[C@@H]2CSSC[C@@H]3NC(=O)[C@H](Cc4cccc5ccccc45)NC(=O)[C@H](Cc4ccccc4)NC(=O)[C@H](C)NC(=O)[C@H]([C@@H](C)O)NC(=O)[C@H](CSSC[C@H](NC(=O)[C@H](Cc4ccccc4)NC(=O)[C@H](CO)NC(=O)[C@H](CC(C)C)NC(=O)[C@H](CCCNC(=N)N)NC(=O)[C@H](Cc4ccc(O)cc4)NC(=O)[C@H](CCCCN)NC(=O)[C@H](CCSC)NC(=O)[C@H](CO)NC(=O)[C@H](Cc4c[nH]cn4)NC(=O)[C@H](CCCCN)NC3=O)C(=O)N[C@@H](CCCNC(=N)N)C(=O)N[C@@H](CCCCN)C(=O)N[C@@H]([C@@H](C)O)C(=O)N2)NC(=O)[C@H](CCCNC(=N)N)NC(=O)[C@H](CO)NC(=O)[C@H](CCCCN)NC(=O)[C@@H]2CCCN2C(=O)[C@H]([C@@H](C)CC)NC(=O)[C@H]([C@@H](C)O)NC(=O)[C@H](CC(=O)O)NC1=O [[1-Nal16]ShK]	0.699	28.9		9.55
CCCC[C@@H]1NC(=O)[C@H](CO)NC(=O)[C@H](Cc2c[nH]cn2)NC(=O)[C@H](CCCCN)NC(=O)[C@@H]2CSSC[C@@H]3NC(=O)[C@H]([C@@H](C)O)NC(=O)[C@H](CCCCN)NC(=O)[C@H](CCCNC(=N)N)NC(=O)[C@H](CSSC[C@H](NC(=O)[C@H](CCCNC(=N)N)NC(=O)[C@H](CO)NC(=O)[C@H](CCC(=O)O)NC(=O)[C@@H]4CCCN4C(=O)[C@H]([C@@H](C)CC)NC(=O)[C@H]([C@@H](C)O)NC(=O)[C@H](CC(=O)O)NC(=O)[C@H]([C@@H](C)CC)NC(=O)[C@@H](NC(=O)[C@H](CO)NC(=O)[C@@H](N)CCCNC(=N)N)CSSC[C@@H](C(N)=O)NC(=O)[C@H]([C@@H](C)O)NC(=O)CNC3=O)C(=O)N[C@@H]([C@@H](C)O)C(=O)N[C@@H](C)C(=O)N[C@@H](Cc3ccccc3)C(=O)N[C@@H](CCCCN)C(=O)N2)NC(=O)[C@H](Cc2ccccc2)NC(=O)[C@H](CO)NC(=O)[C@H](CC(C)C)NC(=O)[C@H](CCCNC(=N)N)NC(=O)[C@H](Cc2ccc(O)cc2)NC(=O)[C@H](CCCCN)NC1=O [[Glu9, Lys16,Nle21]ShK-amide]	0.263	0.257		0.342
CC[C@H](C)[C@@H]1NC(=O)[C@@H](NC(=O)[C@H](CO)NC(=O)[C@@H](N)CCCNC(=N)N)CSSC[C@@H](C(=O)O)NC(=O)[C@H]([C@@H](C)O)NC(=O)CNC(=O)[C@@H]2CSSC[C@@H]3NC(=O)[C@H](CCC(N)=O)NC(=O)[C@H](Cc4ccccc4)NC(=O)[C@H](C)NC(=O)[C@H]([C@@H](C)O)NC(=O)[C@H](CSSC[C@H](NC(=O)[C@H](Cc4ccccc4)NC(=O)[C@H](CO)NC(=O)[C@H](Cc4cccc5ccccc45)NC(=O)[C@H](CCCNC(=N)N)NC(=O)[C@H](Cc4ccc(O)cc4)NC(=O)[C@H](CCCCN)NC(=O)[C@H](CCSC)NC(=O)[C@H](CO)NC(=O)[C@H](Cc4c[nH]cn4)NC(=O)[C@H](CCCCN)NC3=O)C(=O)N[C@@H](CCCNC(=N)N)C(=O)N[C@@H](CCCCN)C(=O)N[C@@H]([C@@H](C)O)C(=O)N2)NC(=O)[C@H](CCCNC(=N)N)NC(=O)[C@H](CO)NC(=O)[C@H](CCCCN)NC(=O)[C@@H]2CCCN2C(=O)[C@H]([C@@H](C)CC)NC(=O)[C@H]([C@@H](C)O)NC(=O)[C@H](CC(=O)O)NC1=O [[1-Nal25]ShK]	0.106	0.061		0.084
CC[C@H](C)[C@@H]1NC(=O)[C@@H](NC(=O)[C@H](CO)NC(=O)[C@@H](N)CCCCN)CSSC[C@@H](C(=O)O)NC(=O)[C@H]([C@@H](C)O)NC(=O)CNC(=O)[C@@H]2CSSC[C@@H]3NC(=O)[C@H](CCC(N)=O)NC(=O)[C@H](Cc4ccccc4)NC(=O)[C@H](C)NC(=O)[C@H]([C@@H](C)O)NC(=O)[C@H](CSSC[C@H](NC(=O)[C@H](Cc4ccccc4)NC(=O)[C@H](CO)NC(=O)[C@H](CC(C)C)NC(=O)[C@H](CCCNC(=N)N)NC(=O)[C@H](Cc4ccc(O)cc4)NC(=O)[C@H](CCCCN)NC(=O)[C@H](CCSC)NC(=O)[C@H](CO)NC(=O)[C@H](Cc4c[nH]cn4)NC(=O)[C@H](CCCCN)NC3=O)C(=O)N[C@@H](CCCNC(=N)N)C(=O)N[C@@H](CCCCN)C(=O)N[C@@H]([C@@H](C)O)C(=O)N2)NC(=O)[C@H](CCCNC(=N)N)NC(=O)[C@H](CO)NC(=O)[C@H](CCCCN)NC(=O)[C@@H]2CCCN2C(=O)[C@H]([C@@H](C)CC)NC(=O)[C@H]([C@@H](C)O)NC(=O)[C@H](CC(=O)O)NC1=O [[Lys1]ShK]	0.158	0.035		0.073
CC[C@H](C)[C@@H]1NC(=O)[C@@H](NC(=O)[C@H](CO)NC(=O)[C@@H](N)CCCNC(=N)N)CSSC[C@@H](C(N)=O)NC(=O)[C@H]([C@@H](C)O)NC(=O)CNC(=O)[C@@H]2CSSC[C@@H]3NC(=O)[C@H](CCCCN)NC(=O)[C@H](Cc4ccccc4)NC(=O)[C@H](C)NC(=O)[C@H]([C@@H](C)O)NC(=O)[C@H](CSSC[C@H](NC(=O)[C@H](Cc4ccccc4)NC(=O)[C@H](CO)NC(=O)[C@H](CC(C)C)NC(=O)[C@H](CCCNC(=N)N)NC(=O)[C@H](Cc4ccc(O)cc4)NC(=O)[C@H](CCCCN)NC(=O)[C@H](Cc4ccccc4)NC(=O)[C@H](CO)NC(=O)[C@H](Cc4c[nH]cn4)NC(=O)[C@H](CCCCN)NC3=O)C(=O)N[C@@H](CCCNC(=N)N)C(=O)N[C@@H](CCCCN)C(=O)N[C@@H]([C@@H](C)O)C(=O)N2)NC(=O)[C@H](CCCNC(=N)N)NC(=O)[C@H](CO)NC(=O)[C@H](CCCCN)NC(=O)[C@@H]2CCCN2C(=O)[C@H]([C@@H](C)CC)NC(=O)[C@H]([C@@H](C)O)NC(=O)[C@H](CC(=O)O)NC1=O [[Lys16, Phe21]ShK-amide]	0.246	1.47		2.04
CC[C@H](C)[C@@H]1NC(=O)[C@H](CO)NC(=O)[C@H](Cc2c[nH]cn2)NC(=O)[C@H](CCCCN)NC(=O)[C@@H]2CSSC[C@@H]3NC(=O)[C@H]([C@@H](C)O)NC(=O)[C@H](CCCCN)NC(=O)[C@H](CCCNC(=N)N)NC(=O)[C@H](CSSC[C@H](NC(=O)[C@H](CCCNC(=N)N)NC(=O)[C@H](CO)NC(=O)[C@H](CCCCN)NC(=O)[C@@H]4CCCN4C(=O)[C@H]([C@@H](C)CC)NC(=O)[C@H]([C@@H](C)O)NC(=O)[C@H](CC(=O)O)NC(=O)[C@H]([C@@H](C)CC)NC(=O)[C@@H](NC(=O)[C@H](CO)NC(=O)[C@@H](N)CCCNC(=N)N)CSSC[C@@H](C(N)=O)NC(=O)[C@H]([C@@H](C)O)NC(=O)CNC3=O)C(=O)N[C@@H]([C@@H](C)O)C(=O)N[C@@H](C)C(=O)N[C@@H](Cc3ccccc3)C(=O)N[C@@H](CCCCN)C(=O)N2)NC(=O)[C@H](Cc2ccccc2)NC(=O)[C@H](CO)NC(=O)[C@H](CC(C)C)NC(=O)[C@H](CCCNC(=N)N)NC(=O)[C@H](Cc2ccc(O)cc2)NC(=O)[C@H](CCCCN)NC1=O [[Lys16, Ile21]ShK-amide]	0.14	2.49		5.77
CC[C@H](C)[C@@H]1NC(=O)[C@@H](NC(=O)[C@H](CO)NC(=O)[C@@H](N)CCCNC(=N)N)CSSC[C@@H](C(=O)O)NC(=O)[C@H]([C@@H](C)O)NC(=O)CNC(=O)[C@@H]2CSSC[C@@H]3NC(=O)[C@H](CCC(N)=O)NC(=O)[C@H](Cc4ccccc4)NC(=O)[C@H](C)NC(=O)[C@H]([C@@H](C)O)NC(=O)[C@H](CSSC[C@H](NC(=O)[C@H](Cc4ccccc4)NC(=O)[C@H](CO)NC(=O)[C@H](CC(C)C)NC(=O)[C@H](CCCNC(=N)N)NC(=O)[C@H](Cc4ccc(O)cc4)NC(=O)[C@H](CCCCN)NC(=O)[C@H](CCSC)NC(=O)[C@H](CO)NC(=O)[C@H](Cc4c[nH]cn4)NC(=O)[C@H](CCCCN)NC3=O)C(=O)N[C@@H](CCCNC(=N)N)C(=O)N[C@@H](C)C(=O)N[C@@H]([C@@H](C)O)C(=O)N2)NC(=O)[C@H](CCCNC(=N)N)NC(=O)[C@H](CO)NC(=O)[C@H](CCCCN)NC(=O)[C@@H]2CCCN2C(=O)[C@H]([C@@H](C)CC)NC(=O)[C@H]([C@@H](C)O)NC(=O)[C@H](CC(=O)O)NC1=O [[Ala30]ShK]	0.178	0.258		0.394
CC[C@@H]1NC(=O)[C@H](CO)NC(=O)[C@H](Cc2c[nH]cn2)NC(=O)[C@H](CCCCN)NC(=O)[C@@H]2CSSC[C@@H]3NC(=O)[C@H]([C@@H](C)O)NC(=O)[C@H](CCCCN)NC(=O)[C@H](CCCNC(=N)N)NC(=O)[C@H](CSSC[C@H](NC(=O)[C@H](CCCNC(=N)N)NC(=O)[C@H](CO)NC(=O)[C@H](CCCCN)NC(=O)[C@@H]4CCCN4C(=O)[C@H]([C@@H](C)CC)NC(=O)[C@H]([C@@H](C)O)NC(=O)[C@H](CC(=O)O)NC(=O)[C@H](CCC(=O)O)NC(=O)[C@@H](NC(=O)[C@H](CO)NC(=O)[C@@H](N)CCCNC(=N)N)CSSC[C@@H](C(N)=O)NC(=O)[C@H]([C@@H](C)O)NC(=O)CNC3=O)C(=O)N[C@@H]([C@@H](C)O)C(=O)N[C@@H](C)C(=O)N[C@@H](Cc3ccccc3)C(=O)N[C@@H](CCCCN)C(=O)N2)NC(=O)[C@H](Cc2ccccc2)NC(=O)[C@H](CO)NC(=O)[C@H](CC(C)C)NC(=O)[C@H](CCCNC(=N)N)NC(=O)[C@H](Cc2ccc(O)cc2)NC(=O)[C@H](CCCCN)NC1=O [[Glu4, Lys16,Abu21]ShK-amide]	0.33	1.11		1.76
